Article PMC10133546, “Simultaneous determination of multiple components in rat plasma by UHPLC-sMRM for pharmacokinetic studies after oral administration of Qingjin Yiqi Granules” (Frontiers in Pharmacology, 2023)
Like-named read-outs stand apart in the source and are kept apart here.

How the values were obtained:
[1] = Pharmacokinetic study in rat plasma after oral administration of QJYQ (UHPLC-sMRM); type: in vivo, Sprague-Dawley rats; conditions: rat plasma, oral QJYQ 3.15 g/kg
Experimental: Exion LC AD tandem Blueline 3500 triple quadrupole mass spectrometer (AB SCIEX, Framingham, MA, United States) was used to thirty-three compounds in rat plasma. […] The whole detailed parameters of sMRM were obtained in Supplementary Table S1.
Rat plasma (100 μL) was mixed with 10% formic acid (10 μL) and vortexed for 1 min at room temperature. ISs (10 μL) and methanol/acetonitrile (1/1, v/v) (400 μL) were added and vortexed for 5 min, then centrifuged for 10 min at 14,000 rpm and 4°C. The transported supernatant was condensed to dryness under the flow of nitrogen gas. The dried residue was reconstituted with 70% methanol (100 μL) by vortex-mixing for 5 min and centrifuging at 14,000 rpm for 10 min. Last, 2 μL of the solution were injected into the UHPLC-sMRM system.
The pharmacokinetic study was approved by the Animal Ethics Committee of Tianjin University of Traditional Chinese Medicine (TCM-LAEC2021228). Ten male Sprague-Dawley rats (weight 220–240 g) was kept at the animal center of Tianjin University of Traditional Chinese Medicine (Tianjin, China). […] The sample was transferred right away following a 10 min period of centrifugation at 7000 rpm and 4°C. All plasma samples were frozen and stored at −80°C.
All the pharmacokinetic parameters were calculated using the DAS 1.0 software (Drug and Statistics 1.0, Medical College of Wannan, China). Pharmacokinetic parameters include the maximum drug concentration in plasma (Cmax), the time to achieve maximum drug concentration (Tmax), the area under the plasma concentration-time curve (AUC), elimination half-life (T1/2), and mean residence time (MRT). The pharmacokinetic parameters were computed using the non-compartmental model. All data are expressed as mean ± standard deviation (SD). GraphPad Prism 8.0 (GraphPad Software Inc., La Jolla, CA, United States) software was used to draw the drug-time curve.

[2] = Stability of analytes in rat plasma (auto-sampler, freeze-thaw, room temperature, long-term); conditions: for Autosampler for 24 h Accuracy (%): autosampler 24 h; for Room temperature for 24 h Accuracy (%): room temperature 24 h; for Freeze thaw cycles Accuracy (%): three freeze-thaw cycles
[3] = Stability of the working solution (4°C for 1 month); type: physicochemical
Experimental: The stability of analytes in plasma was evaluated by analyzing 4 QC samples (n = 6). The stability was included auto-sampler stability (keeping the sample in auto-sampler for 24 h), three times of freeze-thaw cycles stability (freezing cycle at −80°C, thawing cycle at room temperature), room temperature stability (storing samples at room temperature for 24 h), long-term stability (storing samples at −80°C for 1 month). […] Accompanying curve was established when testing the sample, calculate and compare the ratio of the actual measured concentration to the theoretical concentration, expressed in accuracy and RSD.

## CC1(C)[C@@H](O[C@H]2O[C@H](C(=O)O)[C@@H](O)[C@H](O)[C@H]2O[C@@H]2O[C@H](C(=O)O)[C@@H](O)[C@H](O)[C@H]2O)CC[C@]2(C)[C@H]3C(=O)C=C4[C@@H]5C[C@@](C)(C(=O)O)CC[C@]5(C)CC[C@@]4(C)[C@]3(C)CC[C@@H]12 [glycyrrhizic acid]
[1]; male, Sprague-Dawley, rat, plasma, po, 3.15 g/kg, n = 8, mean ± SD, read-out: Tmax
  Tmax: < 0.5 h
[1]; male, Sprague-Dawley, n = 8, mean ± SD
  half-life: 1.67 ± 0.16 h
[1]; male, Sprague-Dawley, n = 8, mean ± SD, read-out: AUC(0-t)
  AUC(0-t): 1110 ± 138 ng·h/mL
[1]; male, Sprague-Dawley, n = 8, mean ± SD, read-out: AUC(0-∞)
  AUC(0-inf): 1120 ± 228 ng·h/mL
[1]; male, Sprague-Dawley, n = 8, mean ± SD, read-out: Cmax
  Cmax: 359 ± 147 ng/mL
[1]; male, Sprague-Dawley, n = 8, mean ± SD, read-out: MRT (0-∞)
  MRT inf: 5.38 ± 1.16 h
[1]; male, Sprague-Dawley, n = 8, mean ± SD, read-out: MRT(0-t)
  MRT last: 5.3 ± 0.28 h
[2]; concentration 12.5 ng/mL
  Autosampler for 24 h Accuracy (%): 94.4%
  Freeze thaw cycles Accuracy (%): 84.6%
[2]; concentration 50 ng/mL
  Autosampler for 24 h Accuracy (%): 100.0%
  Room temperature for 24 h Accuracy (%): 94.6%
[2]; concentration 100 ng/mL
  Autosampler for 24 h Accuracy (%): 94.3%
  Room temperature for 24 h Accuracy (%): 107.0%
[2]; concentration 500 ng/mL
  Autosampler for 24 h Accuracy (%): 94.5%
  Room temperature for 24 h Accuracy (%): 89.9%
  Freeze thaw cycles Accuracy (%): 97.0%
[2]; −80°C for 1 month, concentration 12.5 ng/mL
  −80°C for 1month Accuracy (%): 85.6%
[2]; −80°C for 1 month, concentration 50 ng/mL
  −80°C for 1month Accuracy (%): 89.7%
[2]; −80°C for 1 month, concentration 100 ng/mL
  −80°C for 1month Accuracy (%): 96.2%
[2]; −80°C for 1 month, concentration 500 ng/mL
  −80°C for 1month Accuracy (%): 93.4%
[3]; concentration 50 ng/mL
  Working solution Accuracy (%): 88.5%
[3]; concentration 100 ng/mL
  Working solution Accuracy (%): 104.0%
[3]; concentration 500 ng/mL
  Working solution Accuracy (%): 87.0%

## COc1ccc([C@@H]2CC(=O)c3c(O)cc(O[C@@H]4O[C@H](CO[C@@H]5O[C@@H](C)[C@H](O)[C@@H](O)[C@H]5O)[C@@H](O)[C@H](O)[C@H]4O)cc3O2)cc1O [hesperidin]
[1]; n = 8, mean ± SD
  AUC(0-t): 1058.05 ± 267.32 ng·h/mL
  AUC(0-∞): 1058.06 ± 267.32 ng·h/mL
  Cmax: 604.36 ± 145.25 ng/mL
  MRT (0-∞): 4.52 ± 0.54 h
  MRT(0-t): 4.52 ± 0.54 h
  T1/2: 1.94 ± 0.03 h
[2]; 12.5 ng/mL
  Autosampler for 24 h Accuracy (%): 82.1%
  Room temperature for 24 h Accuracy (%): 84.1%
  Freeze thaw cycles Accuracy (%): 94.3%
[2]; 12.5 ng/mL, −80°C 1 month
  −80°C for 1month Accuracy (%): 81.8%
[2]; 50 ng/mL
  Autosampler for 24 h Accuracy (%): 100.0%
  Room temperature for 24 h Accuracy (%): 93.7%
  Freeze thaw cycles Accuracy (%): 85.4%
[2]; 50 ng/mL, −80°C 1 month
  −80°C for 1month Accuracy (%): 85.8%
[2]; 100 ng/mL
  Autosampler for 24 h Accuracy (%): 96.0%
  Room temperature for 24 h Accuracy (%): 92.3%
  Freeze thaw cycles Accuracy (%): 95.7%
[2]; 100 ng/mL, −80°C 1 month
  −80°C for 1month Accuracy (%): 93.1%
[2]; 500 ng/mL
  Autosampler for 24 h Accuracy (%): 87.8%
  Room temperature for 24 h Accuracy (%): 92.3%
  Freeze thaw cycles Accuracy (%): 89.1%
[2]; 500 ng/mL, −80°C 1 month
  −80°C for 1month Accuracy (%): 93.6%
[3]; 12.5 ng/mL
  Working solution Accuracy (%): 81.7%
[3]; 50 ng/mL
  Working solution Accuracy (%): 109.0%
[3]; 100 ng/mL
  Working solution Accuracy (%): 102.0%
[3]; 500 ng/mL
  Working solution Accuracy (%): 91.0%

## COc1cc(/C=C/C(=O)O)ccc1O [ferulic acid]
[1]; MRT type not specified
  MRT: greater than 8 h
[1]; n = 8, mean ± SD
  AUC(0-t): 173.23 ± 5.66 ng·h/mL
  AUC(0-∞): 176.72 ± 28.57 ng·h/mL
  Cmax: 51.71 ± 10.68 ng/mL
  MRT (0-∞): 8.43 ± 0.53 h
  MRT(0-t): 8.40 ± 0.20 h
  T1/2: 2.12 ± 0.07 h
[2]; 12.5 ng/mL
  Autosampler for 24 h Accuracy (%): 84.5%
  Room temperature for 24 h Accuracy (%): 104.0%
  Freeze thaw cycles Accuracy (%): 96.0%
[2]; 12.5 ng/mL, −80°C 1 month
  −80°C for 1month Accuracy (%): 115.0%
[2]; 50 ng/mL
  Autosampler for 24 h Accuracy (%): 86.9%
  Room temperature for 24 h Accuracy (%): 96.8%
  Freeze thaw cycles Accuracy (%): 98.3%
[2]; 50 ng/mL, −80°C 1 month
  −80°C for 1month Accuracy (%): 90.9%
[2]; 100 ng/mL
  Autosampler for 24 h Accuracy (%): 91.5%
  Room temperature for 24 h Accuracy (%): 86.7%
  Freeze thaw cycles Accuracy (%): 115.0%
[2]; 100 ng/mL, −80°C 1 month
  −80°C for 1month Accuracy (%): 95.9%
[2]; 500 ng/mL
  Autosampler for 24 h Accuracy (%): 93.6%
[2]; 500 ng/mL, −80°C 1 month
  −80°C for 1month Accuracy (%): 107.0%
[3]; 12.5 ng/mL
  Working solution Accuracy (%): 87.7%
[3]; 50 ng/mL
  Working solution Accuracy (%): 96.8%
[3]; 100 ng/mL
  Working solution Accuracy (%): 88.3%
[3]; 500 ng/mL
  Working solution Accuracy (%): 96.7%
